Measurements published in patent US6271342A, “Sugar-modified cytostatics” (Bayer Aktiengesellschaft, priority 1995, dated 2001).

Key:
Assay in all cases: Growth inhibition test (MTT) for cytotoxic properties
HT 29 = assay type: cell-based, human; conditions: Table 1a, glycoconjugates of batracyline
Experimental: (§1) Growth Inhibition Test for Determination of the Cytotoxic Properties of Glycoconjugates of Batracyline and of Quinolone-a
(§2) The human colon cell lines SW 480 and HT 29 (ATCC no. CCL 228 and HBT-38) and the mouse melanoma cell line B 16 F 10 were cultured in Roux dishes in RPMI 1640 medium with addition of 10% FCS. The cultures were then trypsinized and taken up in RPMI plus 10% FCS to a cell count of 50,000 cells/ml. 100 μl of cell suspension/well were introduced into a 96 microwell plate and incubated for 1 day at 37° C. in a CO2 incubating cabinet. A further 100 μl of RPMI medium and 1 μl of dimethyl sulphoxide with the test substances were then added. The growth was checked after day 3 and day 6. 40 μl of MTT solution (3-(4,5-dimethylthiazol-2-yl)-2,5-diphenyltetrazoline bromide) with an initial concentration of 5 mg/ml of H2 O were added to each microwave. The plate was incubated for 5 hours in a CO2 incubating cabinet at 37° C. The medium was then sucked off and 100 μl of i-propanol/well were added. After shaking for 30 minutes with 100 μl of H2 O, the extinction was measured at 540 nm with a Titertek Multiskan MCC/340 (Flow).
(§3) The cytotoxic action of the glycoconjugates of batracyline described is shown in Table 1a as the IC50 value in each case for the SW 480 and HT 29 cell lines.

SW 480 = assay type: cell-based, human
Experimental: as §1, §2, §3

B 16 F 10 = assay type: cell-based, mouse; conditions: Table 1b
Experimental: as §1, §2

[1] = Table 1a, glycoconjugates of batracyline

Compound | IC50 (HT 29) [µM] | IC50 (SW 480; [1]) [µM] | IC50 (SW 480; Table 1b) [µM] | IC50 (B 16 F 10) [µM]
N-{N^α -[O-(3-O-Methyl-β-L-fucosyl)-4-hydroxy-phenylamino-thiocarbonyl]-lysy l-D-alanyl}-batracyline [Example 4.3] | 20 | 20 |  | 
N-{N^α,N^ε -Bis-[O-(3-O-carbamoylmethyl-β-D-galactopyranosyl)-4-hydroxy-phenylam ino-thiocarbonyl]-lysyl-D-seryl}-batracyline [Example 6.43] | 80 | 90 |  | 
COC1C(O)C(C)OC(Oc2ccc(NC(=S)NCCCCC(NC(=S)Nc3ccc(OC4OC(C)C(O)C(OCC(=O)O)C4O)cc3)C(=O)NC(C)C(=O)Nc3ccc4nc5n(c(=O)c4c3)Cc3ccccc3-5)cc2)C1O [Example 5.1, N-{N^α -[O-(3-O-Carboxymethyl-β-L-fucosyl)-4-hydroxyphenylaminothiocarbonyl] -N^ε -[O-(3-O-methyl-β-L-fucosyl)-4-hydroxyphenylaminothiocarbonyl]-lysyl-D-alanyl}-batracyline] | 45 | 55 |  | 
N-{N^α -[O-(3-O-Methyl-α-D-mannopyranosyl)-4-hydroxy-phenylamino-thiocarbon yl]-lysyl-D-alanyl}-batracyline [Example 4.12] | 9 | 15 |  | 
NC(=O)COC1C(O)C(CO)OC(Oc2ccc(NC(=S)NCCCCC(NC(=S)Nc3ccc(OC4OC(CO)C(O)C(OCC(N)=O)C4O)cc3)C(=O)Nc3ccc4nc5n(c(=O)c4c3)Cc3ccccc3-5)cc2)C1O [Example 6.29, N-{N^α,N^ε -Bis-[O-(3-O-carbamoylmethyl-β-D-galactopyranosyl)-4-hydroxy-phenylamino-thiocarbonyl]-lysyl}-batracyline] | 130 | 95 |  | 
N-{N-(O-(3-O-Methyl-β-L-fucosyl)-4-hydroxy-phenylamino-thiocarbonyl]-D -alanyl}-batracyline [Example 7.1] | 40 | 40 |  | 
N-{N^α -[O-(3-O-Methoxycarbonylmethyl-β-D-galactopyranosyl)-4-hydroxy-phenyl amino-thiocarbonyl]-N^ε -[O-(3-O-carbamoylmethyl-β-D-galactopyranosyl)-4-hydroxy-phenylamino- thiocarbonyl]-lysyl-D-alanyl}-batracyline [Example 5.22] | 40 | 30 |  | 
CO[C@H]1[C@H](O)[C@@H](Oc2ccc(NC(=S)N[C@@H](C)C(=O)NC3C=CCC4CN(c5c(F)cc6c(=O)c(C(=O)O)cn(C7CC7)c6c5Cl)CC43)cc2)O[C@@H](C)[C@H]1O (stereo partly drawn) [Example 12.2] |  |  | 4 | 0.8
N-{N^α,N^ε -Bis-[O-(3,4-di-O-methyl-β-D-galactopyranosyl)-4-hydroxy-phenylamino- thiocarbonyl]-lysyl-seryl}-batracyline [Example 6.32] | 60 | 60 |  | 
N-{N^α -[O-(3-O-Methyl-β-L-fucosyl)-4-hydroxyphenylamino-thiocarbonyl]-N. sup.ε -[O-(3-O-carboxymethyl-β-L-fucosyl)-4-hydroxyphenylamino-thiocarbonyl ]-lysyl-D-alanyl}-batracyline [Example 5.2] | 55 | 20 |  | 
N-{N^α,N^ε -Bis-[O-(3,4-di-O-methyl-β-D-galactopyranosyl)-4-hydroxy-phenylamino- thiocarbonyl]-lysyl-D-seryl}-batracyline [Example 6.40] | 60 | 170 |  | 
N-{N^α -[O-(3,4-Di-O-methyl-β-D-galactopyranosyl)-4-hydroxy-phenylamino-thio carbonyl]-N^ε -[O-(3-O-carbamoylmethyl-β-D-galactopyranosyl)-4-hydroxy-phenylamino- thiocarbonyl]-lysyl-D-alanyl}-batracyline [Example 5.21] | 80 | 60 |  | 
